According to patent US10058533B2, “Pharmaceutical composition containing Ginkgolide B and Xa factor inhibitor, preparation method thereof and use thereof” (CHENGDU BAIYU PHARMACEUTICAL CO., LTD, priority 2014, dated 2018):

Assays:
[1] = tested on: factor Xa; test: Anti-coagulation factor Xa activity in vitro (chromogenic substrate assay); format: biochemical, rabbit
Experimental: A chromogenic substrate assay was adopted, and plasma anti-Xa activity was determined on a microplate reader according to a kit specification and reference documents.

[2] = tested on: coagulation function (aPTT); test: aPTT of coagulation function, rabbit wound-limb deep venous thrombosis forming model; format: in vivo; settings: for aPPT: 5 mg/kg i.g., x ± SD
Experimental: (§1) Eight were taken as control group and the rest were treated by a striking device. Striking area was a round surface with the diameter of 1.5 cm, the wounding energy was calculated according to Ep=mgh, and the energy of each striking of the iron rod is 7.5 J.
(§2) Specifically: the rabbit was anesthetized by intravenous injection of 3% pentobarbital sodium at ear edge with the dose of 1 ml/kg. The rabbit was kept laying down at right side prostrate position and the left thigh was set on the striking platform. Found the trochanter of the left femur and set the striking head attached to area from the trochanter to the 1.5 cm below. The self-made striking device was used for striking the outer side of the thigh near-end, and the plaster was used for fixing the left limb on the hip/knee-bending area. When the plaster bandage was applied and the right hip was examined to move freely, the rabbit was kept to lay down until solidification. After the model establishment, the animal was allowed to drink water normally and was fed with granular food. No anticoagulant or antibiotic was used.
(§3) Animals were grouped after modeling. The drug was fed according to table 4 via oral gavage, once a day for 7 days continuously.
(§4) At 0.5, 1.0, 2.0, 3.0 and 4.0 h after the first administration, blood was taken from ear central artery. Plasma was separated and aPPT, PT and the anti-factor Xa activity were determined on an automatic coagulation detector.

[3] = tested on: factor Xa; test: Plasma anti-factor Xa activity, rabbit wound-limb deep venous thrombosis forming model; format: in vivo
Experimental: as §1, §2, §3, §4

[4] = tested on: PAF (Platelet activating factor); test: Plasma PAF content by ELISA, rabbit wound-limb deep venous thrombosis forming model; format: in vivo; settings: for PAF content (x ± SD): rabbit wound-limb deep venous thrombosis model, *p<0.05, **p<0.01, ***p<0.001 vs model group
Experimental: as §2, with “Eight were taken as control group and the rest were treated by a striking device. […] Specifically:” for “Specifically:”, “Found the trochanter of the left femur and set the striking head attached to area from the trochanter to the 1.5 cm below.” left out, “used. Animals were grouped after modeling. The drug was fed according to table 4 via oral gavage, once a day for 7 days continuously. At 0.5, 1.0, 2.0, 3.0 and 4.0 h after the first administration, blood was taken from ear central artery. Plasma was separated and the content of PAF was determined by ELISA.” for “used.”

[5] = tested on: coagulation function (PT); test: PT of coagulation function, rabbit wound-limb deep venous thrombosis forming model; format: in vivo; settings: 5 mg/kg i.g., x ± SD
Experimental: as §1, §2, §3, §4

[6] = tested on: venous thromboembolism (VTE); settings: cited from earlier work
[7] = in vivo; cited from earlier work
[8] = plasma, 5 mg/kg i.g., 0.5 h after administration, x ± SD
[9] = plasma, 5 mg/kg i.g., 1 h after administration, x ± SD
[10] = plasma, 5 mg/kg i.g., 2 h after administration, x ± SD
[11] = plasma, 5 mg/kg i.g., 3 h after administration, x ± SD
[12] = plasma, 5 mg/kg i.g., 4 h after administration, x ± SD

Row | Compound | anti-factor Xa activity [1] [IU/ml] | aPPT ([2]; 0.5 h after administration) [s] | aPPT ([2]; 1 h after administration) [s] | aPPT ([2]; 2 h after administration) [s] | aPPT ([2]; 3 h after administration) [s] | aPPT ([2]; 4 h after administration) [s] | aPTT compared with model group ([2]; 1 h after administration) | anti-factor Xa activity [3, 8] [IU/ml] | anti-factor Xa activity [3, 9] [IU/ml] | anti-factor Xa activity [3, 10] [IU/ml] | anti-factor Xa activity [3, 11] [IU/ml] | anti-factor Xa activity [3, 12] [IU/ml] | PAF content (x ± SD) ([4]; 1 h after administration) [ng/L] | PAF content (x ± SD) ([4]; 3 h after administration) [ng/L] | PAF content compared to model group ([4]; 4 h after administration) | PT ([5]; 0.5 h after administration) [s] | PT ([5]; 1 h after administration) [s] | PT ([5]; 2 h after administration) [s] | PT ([5]; 3 h after administration) [s] | PT ([5]; 4 h after administration) [s] | further results
1 | COc1ccc(-n2nc(C(N)=O)c3c2C(=O)N(c2ccc(N4CCCCC4=O)cc2)CC3)cc1 [Apixaban] | 1.07 | 19.05 ± 6.17 | 24.26 ± 7.89 | 23.94 ± 5.49 | 31.71 ± 8.53 | 29.21 ± 11.35 | no obvious extension | 0.16 ± 0.10 | 0.26 ± 0.04 | 0.25 ± 0.10 | 1.22 ± 0.22 | 1.12 ± 0.15 | 1543.57 ± 239.95 | 1865.71 ± 371.23 | extremely significant decrease | – | – | – | – | – | anti-factor Xa activity ([3]; 0.5 h-4 h after administration): extremely significant difference; PAF content (x ± SD) ([4]; 2 h after administration): 1117.86 ± 231.52 ng/L
2 | CN1CCc2nc(C(=O)N[C@@H]3C[C@@H](C(=O)N(C)C)CC[C@@H]3NC(=O)C(=O)Nc3ccc(Cl)cn3)sc2C1 [Edoxaban] | – | 26.77 ± 7.65 | 25.01 ± 9.52 | 33.63 ± 5.45 | 36.47 ± 9.12 | 27.20 ± 6.31 | no obvious extension | – | – | – | – | – | 1236.72 ± 301.62 | 1623.43 ± 256.35 | – | 6.73 ± 0.15 | 6.14 ± 0.26 | 6.28 ± 0.42 | 6.45 ± 0.65 | 6.42 ± 0.34 | –
3 | CC1C(=O)OC2C(O)C34C5CC(C(C)(C)C)C36C(OC(=O)C6O)OC4(C(=O)O5)C12O (centres unmarked) [Ginkgolide B] | 0.57 | 25.89 ± 8.15 | 30.65 ± 6.79 | 25.83 ± 5.96 | 34.30 ± 6.56 | 31.92 ± 7.77 | obviously extended | 0.08 ± 0.07 | 0.10 ± 0.10 | 0.35 ± 0.22 | 0.74 ± 0.15 | 0.65 ± 0.12 | 1255.71 ± 300.73 | 1656.43 ± 259.36 | – | 6.76 ± 0.32 | 6.79 ± 0.27 | 6.75 ± 0.36 | 6.72 ± 0.24 | 6.68 ± 0.23 | anti-factor Xa activity ([3]; 0.5 h-4 h after administration): increased with time; PAF content compared to model group ([4]; 2 h after administration): decreased significantly
4 | CN(C)Cc1nccn1-c1ccc(NC(=O)c2cc(C(F)(F)F)nn2-c2ccc3onc(N)c3c2)c(F)c1 [Razaxaban] | 0.86 | 20.13 ± 6.74 | 26.23 ± 8.43 | 22.33 ± 4.46 | 35.75 ± 8.68 | 29.65 ± 9.72 | no obvious extension | 0.20 ± 0.14 | 0.18 ± 0.05 | 0.23 ± 0.08 | 1.31 ± 0.30 | 1.32 ± 0.09 | 1501.29 ± 131.10 | 1641.26 ± 242.32 | decreased significantly | 6.71 ± 0.25 | 7.41 ± 0.51 | 6.47 ± 0.25 | 6.47 ± 0.41 | 6.70 ± 0.25 | PAF content (x ± SD) ([4]; 0.5 h after administration): 889.42 ± 326.32 ng/L; VTE occurrence rate compared with enoxaparin ([6]; patients taking Razaxaban 25 mg, total knee replacement): significantly lower; occurrence rate of large bleeding compared with enoxaparin ([6]; patients taking Razaxaban 25 mg): similar; large bleeding compared with Enoxaparin ([6]; patients taking Razaxaban 50-100 mg): more likely to have large bleeding
5 | O=C(NC[C@H]1CN(c2ccc(N3CCOCC3=O)cc2)C(=O)O1)c1ccc(Cl)s1 [Rivaroxaban] | 0.54 | 27.89 ± 7.97 | 32.01 ± 9.31 | 34.63 ± 5.57 | 35.92 ± 10.85 | 29.20 ± 6.32 | obviously extended | 0.37 ± 0.09 | 0.31 ± 0.13 | 0.18 ± 0.05 | 1.32 ± 0.16 | 1.38 ± 0.18 | 1484.29 ± 129.00 | 1671.43 ± 236.95 | extremely significant decrease | 6.76 ± 0.30 | 7.20 ± 0.96 | 6.90 ± 0.34 | 6.81 ± 0.22 | 6.70 ± 0.33 | anti-factor Xa activity ([3]; 0.5 h-4 h after administration): extremely significant difference; PAF content (x ± SD) ([4]; 0.5 h after administration): 886.43 ± 314.24 ng/L
6 | Otamixaban | 1.03 | 21.67 ± 9.42 | 25.71 ± 7.68 | 25.61 ± 6.75 | 34.62 ± 7.59 | 30.16 ± 9.37 | no obvious extension | 0.19 ± 0.04 | 0.25 ± 0.10 | 0.26 ± 0.14 | 1.25 ± 0.12 | 1.24 ± 0.06 | 1526.56 ± 212.31 | 1745.52 ± 356.26 | decreased significantly | 6.58 ± 0.45 | 6.74 ± 0.26 | 6.52 ± 0.43 | 6.62 ± 0.42 | 7.82 ± 0.31 | PAF content (x ± SD) ([4]; 2 h after administration): 1123.45 ± 224.51 ng/L; excretion through kidney [7]: less than 25%
